Reference: a melting point compilation (Tetko et al.; mined from patent text by program, amines drawn as free bases though some values may be those of a salt)

Compound	melting point [°C]
Cn1nc(-c2ccccc2)nc1-c1ccncc1	132 to 134
N#CC(C(=O)Nc1ccccc1)C(=O)c1nn(-c2ccccc2)c2c1CSc1ccc(NC(=O)CN)cc1-2 (centres undefined)	218 to 221
O=C(O)c1cc(=O)[nH]c2ccc(I)cc12	361 to 363
CC(=NOCCOc1ccc(CC2SC(=O)NC2=O)cc1)c1cccc(Cl)c1 (centres undefined)	82 to 84
COc1ccc(Nc2nc(-c3ccccc3)cc(N3CCC(O)CC3)n2)cc1Cl	220 to 240
COc1ccc(Cc2nc3cc(Cl)cc(CCO)c3o2)cc1OC1CCCC1	74 to 76
CCCCN(O)C1CC(C)(C)N(C(C)=O)C(C)(C)C1	52 to 54
CNc1cc(Oc2ccc3c(C(=O)Nc4cccc(C(F)(F)F)c4)cncc3c2)ncn1	205 to 208
CN(CCOc1ccc(Cn2cc(CCC(=O)O)c(-c3ccccc3)n2)cc1)c1ccccn1	110 to 111
Cc1cc(S)n2nc(N)nc2n1	> 300
CC(C)(C)OC(=O)N1CCOC(C2=C(C#N)C(c3cccc(C#N)c3Br)c3c[nH]nc3N2)C1 (centres undefined)	219
Oc1ccccc1-c1nc(-c2ccccc2O)n(Cc2cccnc2)n1	174 to 176
CCCN1CC(c2cccc(Cl)c2)=C(c2ccc(S(C)(=O)=O)cc2)C1=O	148 to 149
O=C1Cc2cc(OCc3ccc4ccccc4n3)ccc2N1c1c(Cl)cccc1Cl	147 to 148
O=C(COc1cccc(CCNS(=O)(=O)c2ccc(Br)cc2)c1)Nc1nnn[nH]1	205 to 206
Cc1cc(N2C(=O)N(CCCCCN3C(=O)N(c4ccc(C#N)c(C)c4)C(=O)C3(C)C)C(C)(C)C2=O)ccc1C#N	148 to 149
NC(=O)COc1ccccc1C(=O)Nc1ccc(C(=O)N2CCCC(=O)c3ccccc32)cc1	226 to 228
COC(=O)c1cc(Cl)cnc1N	139 to 140
CCOC(=O)COc1ccccc1-c1cc(C#N)c(=O)[nH]c1C	188 to 190
CN(C)C(=O)c1cc2c(NCCc3ccccc3)ncnc2s1	157
CCC1SC(c2ccncc2)=C(C)NC1=O (centres undefined)	121 to 123
CCOC(=O)c1ccc(Cn2cnc3ccncc32)cc1	110 to 112
O=C(O)CC1CCN(c2ccc3c(NC(=O)CC4CCCCC4)c(Cl)ccc3n2)CC1	242 to 244

Compound	melting point [°C]
CCCS(=O)(=O)c1sc(C(N)=O)c2c1-c1c(cnn1C)CC2	142 to 143
CCOC(=O)CCc1cc(Cl)ccc1C(=O)CCCNC(N)=O	127 to 129
CCOC(=O)C1=C(N)NC2=C(C(=O)CCC2)C1c1cccc(Cl)c1 (centres undefined)	266
CCCc1cc(F)c(C(=O)O)c([N+](=O)[O-])c1O	128 to 129
CC1(O)C(O)C(CO)OC1n1ccc2c(N=[N+]=[N-])ncnc21 (centres undefined)	179 to 180
O=Cc1cccc(OCc2nc(-c3ccccc3)c(-c3ccccc3)o2)c1	72 to 75
CCC(O)(CC)c1ccc(Cl)c2nc3n(c12)CCCN3c1ccc(Cl)cc1C(F)(F)F	178 to 180
CCCc1c(O)c(C(C)=O)cc(I)c1OCC(O)COc1ccc2c(=O)cc(C(=O)O)oc2c1CCC (centres undefined)	173 to 176
Cc1cc2nccc(-c3cccnc3)n2n1	182 to 184
COc1cc(C=C2CCN(C(=O)NOCc3ccccc3)C2=O)cc(OC)c1O	167 to 170
COC(=O)C(O)c1ccc(Cl)cc1 (centres undefined)	55
NC(=O)c1ccc(F)c2c1CC(NCCCc1c[nH]c3c(Cl)cccc13)CO2 (centres undefined)	222 to 224
Cc1nn(-c2cc(OC(C)C)c(Cl)cc2F)c(C)c1N	94 to 96.5
COC(=O)c1sc(S)c(Cl)c1O	48 to 49
Cc1nc2cc(C(c3ccccc3)n3ccnc3)ccc2n(N)c1=O (centres undefined)	193
COC(=O)N1CCC(C(C#N)(c2ccccc2)c2ccccc2)C1 (centres undefined)	133 to 135
O=C(CNCCO)Nc1ccccn1	114 to 115
O=C(CCCN1CCN(c2cccc(Cl)c2Cl)CC1)N1CCc2ccccc21	134 to 136
CCOc1cc(Oc2ccc(C(F)(F)F)cn2)ccc1CCCO	50 to 51
CCCCOC(=O)[C@H]1CN(c2ccc(N3CCSCC3)c(F)c2)C(=O)O1	128 to 130
CCCCOc1c(CO)n(CC2CC2)c(=O)c2ccc(Br)cc12	111 to 112
O=Cc1cc([N+](=O)[O-])c(O)c(O)c1Cl	193 to 195
Cc1nc(NCCCOc2cccc(CN3CCCCC3)c2)sc1C	123 to 125

Compound	melting point [°C]
Cc1cc(SCc2sc(-c3ccc(F)c(F)c3)nc2C)ccc1OCC(=O)O	119
COc1ccc2cc(CNCc3ccccc3)ccc2c1	45 to 53
COc1cccc2c1nc(C(F)F)n2-c1nc(N2CCOCC2)nc(N2CCC(NC(=O)CCl)CC2)n1	252 to 254
CCOC(=O)c1c(CN(CC)CC)nc2sc3c(c2c1-c1ccc(OC)c(OC)c1)CCN(C(=O)OCC)C3	119 to 120
CC(=O)OC1CSC(Oc2cccc(-c3cccnc3)n2)C(OC(C)=O)C1OC(C)=O (centres undefined)	141
Cc1c(O)c(=O)ccn1CC(=O)O	> 230
Cc1nc(N2CCc3ccccc3CC2)c(C#N)c(=O)n1N(CC(F)(F)F)C(=O)OC(C)(C)C	86 to 88
CCOC(=O)C1=C(C)NN=C(c2ccccc2)C1c1ccccc1 (centres undefined)	130
COc1ccc(S(=O)(=O)N2C(=O)C(O)(c3ccccc3OC)c3cc(Cl)c(C)cc32)c(OC)c1 (centres undefined)	207 to 208
COc1ccc(CNc2nc(N3CCCC3CO)nc(OC)c2C(=O)NCc2ncccn2)cc1Cl (centres undefined)	153 to 154
COC(=O)C1C(OC)=CCc2ccc(OC)cc21 (centres undefined)	90 to 91
CCCCOc1nc(N)c2[nH]c(=O)n(CCSc3cccc(CC(=O)O)c3)c2n1	205 to 207
O=C(Nc1ccc(C(=O)N2Cc3ccccc3Cc3ccccc32)cc1)c1ccc(Cl)c(Cl)c1	212 to 215
O=C(C=Cc1cccnc1)NCCCCC1CCN(C(Br)(c2ccccc2)C2CCCCC2)CC1 (centres undefined)	143 to 145
O=P(O)(O)C(O)(Cc1c(Cl)cccc1Cl)P(=O)(O)O	226 to 228
CCC(C(=O)c1ccc(Cl)cc1)n1ncn(-c2cnc(N3CCN(c4ccc(OC)cc4)CC3)nc2)c1=O (centres undefined)	185
C#CCN1C(=O)COc2cc(F)c(NC(=O)C3CCCN3C(=O)OCc3ccccc3)cc21 (centres undefined)	72 to 74
O=Cc1cnc2n1CCc1ccccc1C2=C1CCN(CCc2ccc(OCc3ccc4ccccc4n3)cc2)CC1	194
CCN(CC)c1ccc(C2(c3ccc(N(CC)CC)cc3N(CC)CC)OC(=O)c3ccccc32)c(C)c1 (centres undefined)	149 to 151
CCOC(=O)C1=C(c2ccc(OC)cc2)Nc2n[nH]cc2C1c1ccccc1Cl (centres undefined)	211
CCOC(=O)c1c(COc2nccn2C)nc2cc(OC)c(OC)cc2c1-c1ccc(OC)c(OC)c1	151 to 152
COc1ccc(N2CCN(C(=S)C3(C)CCc4c(C)c(O)c(C)c(C)c4O3)CC2)cc1 (centres undefined)	120 to 121
CCOc1ccc(NC(=O)c2c[nH]c3c2C(=O)C(C)(C)CC3)c(F)c1	218 to 219
